One assay concerns KB-V1 cells. The assay is described as follows: SRB cytotoxicity test procedure with KB-V1 cells. The assay is classed as cell-based, human. The conditions noted are these: SRB assay; for Ratio VI/KB: IC50 on KB VI cells/IC50 on KB cells. From the text:
(§1) Human cancer cell lines, unless otherwise noted, are obtained from the American Type Culture Collection (Rockville, Md.). The following drug-sensitive parental cell lines, and their derived drug-resistant counterparts, are obtained from the originators as listed: (a) S1 (parental line from a subclone of human colon carcinoma line LS174T) and derived S1-M1-3.2 (herein called S1-M1) which expresses the MXR drug transporter protein, are provided by Dr. L. Greenberger, Wyeth Research (Rabindran, S. K., He, H., Singh, M., Brown, E., Collins, K. I., Annable, T., and Greenberger, L. M. Reversal of a novel multidrug resistance mechanism in human colon carcinoma cells by fumitremorgin C. Cancer Res., 58: 5850-5858,1998); (b) parental HL-60 human promyelocytic leukemia line and derived HL-60/ADR, which expresses the MRP1 drug transporter protein, are provided by Dr. M. Center, University of Kansas (McGrath, T., and Center, M. S. Adriamycin resistance in HL60 cells in the absence of detectable P-glycoprotein. Biochem. Biophys. […] J. Biol. Chem., 261: 7762-7770, 1986) via Dr. L. Greenberger, Wyeth Research.
The SRB standard cytotoxicity assay is done according to previously reported methods (Discafani, C. M., Carroll, M. L., Floyd Jr., M. B. F., Hollander, I. J., Husain, Z., Johnson, B. D., Kitchen, D., May, M. K., Malo, M. S., Minnick Jr., A. A., Nilakantan, R., Shen, R., Wang Y-F., Wissner, A., Greenberger, L. M. Irreversible inhibition of epidermal growth factor receptor tyrosine kinase with in vivo activity by N-[4-[3-bromophenyl)amino]-6-quinaxolinyl]-2-butynamide (CL-387,785). Biochem. Pharmacol., 57: 917-925, 1999). Briefly, cells are plated in 100 μL of medium in 96-well flat-bottom microtiter plates in the morning of day 1 and allowed to adhere to the plates for 2-6 hr. Compounds are serially diluted into medium as 2× stocks and 100 μL of these stocks are added to cells in duplicate. Compounds are incubated with cells for 3 days. At the end of the incubation period the sulforhodamine B (SRB) assay, which measures protein content as an assessment of cell survival, is performed as described previously (Skehan, P., Storeng, R., Scudiero, D., Monks, A., McMahon, J., Vistica, D., Warren, J. T., Bokesch, H., Kenney, S., Boyd, M. R. New calorimetric cytotoxicity assay for anticancer-drug screening. J. Natl. Cancer Inst., 82:1107-1112, 1990) with some modifications. Medium is gently decanted from plates and replaced with 200 μL per well of cold serum-free medium containing a final concentration of 10% trichloroacetic acid. The plates are incubated for 1 hr at 40, washed 5 times in cold distilled water, and air-dried overnight. The fixed cells are stained for 10 min with 80 μL per well of 0.04% SRB solution prepared in 1% glacial acetic acid. Staining solution is decanted, plates are washed 5 times in 1% glacial acetic acid, and then air-dried until completely dry. Stained cell product is dissolved in 150 μL per well of 10 mM Trizma Base with shaking for 20 minutes. Absorbance is read on a Victor V multi-label plate reader (Perkin Elmer, Gaithersburg, Md.).
The KB lines express different amounts of the P-glycoprotein (MDR1) membrane pump which produces resistance to the action of many cytotoxic compounds, including paclitaxel and vincristine. The parental KB line expresses no P-glycoprotein, KB-8-5 expresses moderate levels of the protein, and KB-V1 expresses very high levels.

A further assay concerns S1-M1 cells. The assay is described as follows: MTS cytotoxicity test procedure with S1-M1 cells. In kind it is cell-based, human. The conditions noted are these: for Ratio: IC50 on S1-M1 cells/IC50 on S1 cells.
Description: as §1
The MTS assay, which is sold in kit form by Promega (Madison, Wis.; CellTiter 96 AQueous Non-Radioactive Cell Proliferation Assay), is based on the conversion by viable cells, but not by dead cells, of the tetrazolium salt, MTS (3-(4,5-dimethylthiazol-2-yl)-5-(3-carboxymethoxyphenyl)-2-(4-sulphophenyl)-2H-tetrazolium, inner salt), into a water-soluble colored formazan which is detected by spectrophotometry. Compounds are tested at nine concentrations, in order to determine IC50 values. For the test procedure, cells are harvested by trypsinization (or, in the case of non-adherent cells, by simple resuspension), washed, counted and distributed to wells of 96-well flat-bottom microtiter plates at 1000 cells per well in 200 μL of medium. In addition, one row of wells on a separate plate receives cells as above (“time 0” plate). All plates are incubated at 370 in humidified 5% CO2 in air for about 24 hr.
On day 2, compounds for test are diluted and added to wells. Compounds are dissolved in DMSO at 10 mg/mL. For each compound, nine serial 2-fold dilutions are prepared in DMSO. Ten μL of each dilution in DMSO is transferred to 100 μL of medium, mixed well, and then 5 μL of this dilution is transferred in quadruplicate to wells containing cells. […] Plates are returned to the incubator for three days. At the time of drug addition to the experimental plates, the MTS assay is run on the “time 0” plate.
After three days of culture with test compounds (day 5 overall), the MTS assay is done on all wells of the experimental plates. The absorbance values of the quadruplicate sample wells are averaged and divided by the average of the “time 0” values. […]
In general terms: Tetrazolium dyes change colour on reduction, which living cells bring about.

Each structure is given as a SMILES string. Bounds are passed on as bounds.

From patent US7285555B2, “6-aryl-7-halo-imidazo[1,2-a]pyrimidines as anticancer agents” (Wyeth Holdings Corporation, priority 2003, dated 2007) come the findings set out here.

With `CC(=O)O[C@H]1C(=O)[C@@]2(C)[C@H]([C@H](OC(=O)c3ccccc3)[C@]3(O)C[C@H](OC(=O)[C@H](O)[C@@H](NC(=O)c4ccccc4)c4ccccc4)C(C)=C1C3(C)C)[C@]1(OC(C)=O)CO[C@@H]1C[C@@H]2O` [Paclitaxel, reference compound], the IC50 – broadly, the concentration that gives 50% inhibition – with KB-V1 cells (Homo sapiens, KB-V1, KB VI cells, means of 2 independent experiments) is greater than 3000 nM. Moreover, the “Ratio VI/KB” value is listed as greater than 1360 with KB-V1 cells and > 1,360 in the assay with KB-V1 cells (listed as paclitaxel).

`CN(C)CCCOc1cc(F)c(-c2c(Cl)nc3nccn3c2C2CCCCCC2)c(F)c1` [Example 6, 3-[4-(7-Chloro-5-cycloheptylimidazo[1,2-a]pyrimidin-6-yl)-3,5-difluorophenoxy]-N,N-dimethylpropan-1-amine]: in the assay on S1-M1 cells (Homo sapiens, MTS assay, S1-M1 cells, means of 2 independent experiments), the midpoint of inhibition, the IC50, lay at 68 nM. The Ratio in the assay on S1-M1 cells is 1.1; with S1-M1 cells (listed as example 6) it was “no resistance”.
